Experimental data published in patent US20050049204A1, “Compounds for the treatment of flaviviridae infections” (priority 2003, published 2005).
Where two headings read alike, the source gives them in different places.

What was measured:
[1] = test system: HCV-replicon RNA-containing Huh7 cells (HCV RNA); assay: HCV replicon assay: HCV RNA quantified by Q-RT-PCR after 96 h of compound exposure; type: cell-based, hepatitis C virus (HCV); details: for EC90: read-out: Corrected HCV RNA EC90
Procedure: (§1) Incubation times differed according to the type of experiment.

[2] = test system: rRNA in HCV-replicon RNA-containing Huh7 cells; assay: rRNA levels in HCV replicon cells (cellular toxicity), Q-RT-PCR after 96 h; details: 100 μM
Procedure: HCV replicon cells were seeded in the presence of test compound at approximately 10^3 cells per well in a 96-well plate and incubated for 96 hours. rRNA and HCV RNA were quantified by Q-RT-PCR. ●: HCV RNA levels; ◯: rRNA levels; ▾: HCV RNA levels after correction (=subtraction of rRNA) for cellular toxicity. […] The plots shown are the mean results of at least three independent experiments. EC90 values as given in Table 1 are read from the HCV curves corrected for cellular toxicity.
HCV-replicon RNA-containing Huh7 cells (Clone A cells; Apath, LLC, St. Louis, Mo.) were kept in exponential growth in DMEM media (high glucose, no pyruvate) containing 10% fetal bovine serum, 1× non-essential amino acids (100 units/ml), penicillin-streptomycin (100 μg/ml), glutamine (0.292 mg/ml), and G418 (1,000 μg/ml). Antiviral assays were performed in the same medium without G418. […] Cells were seeded in a 6-well plate at 10^5 cells per well. Candidate antiviral compounds were tested as described (Stuyver, et al. “A ribonucleoside analogue that blocks the replication of bovine viral diarrhea and hepatitis C viruses in culture” Antimicrob. Agents Chemother., January 2003, 47 (1), 244-254). Incubation times differed according to the type of experiment. At the end of the incubation step, cells were counted using the trypan-blue exclusion method, and total cellular RNA was isolated (Rneasy 96 kit, Qiagen, CA). Replicon RNA and an internal control (TaqMan Ribosomal RNA Control Reagents, Applied Biosystems, CA) were amplified in a single-step, multiplex RT-PCR protocol, as recommended by the manufacturer and as described (Stuyver, et al. “A ribonucleoside analogue that blocks the replication of bovine viral diarrhea and hepatitis C viruses in culture” Antimicrob. Agents Chemother., January 2003, 47 (1), 244-254).
Replicon cells were incubated in the absence or presence of these anti-metabolites for 96 hours, after which intracellular rRNA and HCV RNA levels were quantified (Table 1).

[3] = test system: HCV replicon RNA in Huh7 cells; assay: HCV RNA levels in replicon cells over a 7-day period; type: cell-based, hepatitis C virus (HCV)
[4] = test system: HCV replicon RNA in Huh7 cells; assay: Reversal studies with natural nucleosides: HCV RNA; type: cell-based, hepatitis C virus (HCV)
Procedure: as §1
(§2) Cells were incubated with the test compound and, simultaneously, the natural ribo- or 2′-deoxy nucleosides (adenosine, guanosine (G), cytidine (C), uridine (U), 2′-deoxycytidine (dC), 2′-deoxyuridine, thymidine, 2′-deoxyguanosine (dG), and 2′-deoxyadenosine) (Table 2).

[5] = test system: rRNA in HCV replicon Huh7 cells; assay: Reversal studies with natural nucleosides: rRNA; type: cell-based; details: for log10 reduction rRNA: no nucleoside
Procedure: as §1, §2

[6] = test system: HCV replicon-containing Huh7 cell line; assay: Dynamics of replicon cell growth (cell count) over a 7-day period
[7] = seven-day assay, tested at approximately EC90 value

| SMILES | Corrected HCV RNA log10 reduction at 10 μM ([1]; 10 μM, 96 h, corrected by subtraction of rRNA) | Corrected HCV RNA log10 reduction at 100 μM ([1]; 100 μM, 96 h, corrected by subtraction of rRNA) | EC90 ([1]; Hepatitis C virus, Huh-7, 96 h) | Log10 RNA reduction (100 μM) rRNA [2] | inhibition of the HCV RNA replication [3, 7] | log10 reduction HCV including natural nucleoside ([4]; 100 μM + U at 50 μM) | log10 reduction HCV ([4]; 100 μM, no nucleoside) | log10 reduction rRNA including natural nucleoside ([5]; 100 μM + U at 50 μM) | log10 reduction rRNA ([5]; 100 μM) | effect on cell growth [6, 7] | log reduction at 10 µM ([1]; Hepatitis C virus, Huh-7, 10 μM, 96 h, corrected by subtraction of rRNA, read-out: Corrected HCV RNA log10 reduction at 10 μM) | log reduction at 100 µM ([1]; Hepatitis C virus, Huh-7, 100 μM, 96 h, corrected by subtraction of rRNA, read-out: Corrected HCV RNA log10 reduction at 100 μM) | log reduction at 100 µM ([1]; Hepatitis C virus, Huh-7, 100 μM, 96 h, read-out: Log10 RNA reduction (100 μM) HCV) | EC90 ([1]; Hepatitis C virus, Huh-7, 96 h, read from HCV curves corrected for rRNA reduction) | reducing the HCV RNA levels ([3]; 100 μM, 7-day period) | log10 reduction HCV including natural nucleoside ([4]; 25 μM + C at 50 μM) | log10 reduction rRNA including natural nucleoside ([5]; 25 μM + C at 50 μM) | log10 reduction rRNA ([5]; 25 μM) | effect on cell proliferation ([6]; 100 μM, 7-day period) |
| --- | --- | --- | --- | --- | --- | --- | --- | --- | --- | --- | --- | --- | --- | --- | --- | --- | --- | --- | --- |
| NC(=O)c1[nH]nc([C@@H]2O[C@H](CO)[C@@H](O)[C@H]2O)c1O [pyrazofurin] | 1.16 ± 0.21 log10 | 1.46 ± 0.08 log10 | 3.8 µM | 0.42 ± 0.03 log10 | very potent inhibition | 0.35 ± 0.03 log10 | 1.88 ± 0.05 log10 | −0.01 ± 0.04 log10 | 0.42 ± 0.03 log10 | minimal effect |  |  |  |  |  |  |  |  |  |
| C[C@@]1(O)[C@H](O)[C@@H](CO)O[C@H]1n1ccc(N)nc1=O [2′C—CH3—C, 2′-C-methyl-cytidine] |  |  |  | −0.02 ± 0.05 log10 |  |  |  |  |  |  | 1 | 2.21 ± 0.47 | 2.2 ± 0.52 | 10.4 µM | very potent | 0.48 ± 0.02 log10 | 0.14 ± 0.04 log10 | −0.01 ± 0.02 log10 | no |
